From patent publication US20190240292A1, “METHODS OF ADMINISTERING HEPCIDIN” (priority 2016, published 2019)

Columns and labels:
serum iron levels [1] = assay: Subcutaneous hepcidin 1, 5, 10, 50 mg, effect on serum iron levels in normal rats (Example 3); type: in vivo
Method: A study was designed to evaluate doses of 1, 5, 10, and 50 mg of hepcidin delivered subcutaneously and their effect on serum iron levels in normal rats (n=7/group). […] Tmax and Cmax were reached between 1 and 2 hours post dose for all dose groups, but the uptake between the high and mid dose were very similar at these time points. […] In the 5 mg dose, serum iron levels returned to pre-dose levels at 48 hours post dose.

[2] = Expanded acute study (NOAEL), hepcidin SC in Sprague Dawley rats (Example 4)
Method: A study was designed to evaluate doses of 5, 25, and 50 mg/kg of hepcidin (human equivalent dose of 0.8, 4, 8 mg/kg, respectively), delivered SC to Sprague Dawley rats (n=9/sex/group).

[3] = based on animal data
serum iron concentration = assay: Serum iron levels in patients after hepcidin (Example 7); type: in vivo, human
Method: Serum iron levels were measured in six patients with sickle cell disease patients and hereditary hemochromatosis patients post administration of hepcidin. Serum iron levels were measured prior to hepcidin administration (baseline) as well as post hepcidin administration at 2 hours, 4 hours, 8 hours, 24 hours, 48 hours, and […]. Patients were divided into two cohorts, cohort 1 was administered 1 mg of hepcidin and cohort 2 was administered 5 mg of hepcidin. Cohort 1 comprised sickle cell patients 1001 and 1002 as well as hereditary hemochromatosis patient 1003, while cohort 2 comprised hereditary hemochromatosis patients 2001, 2002, and 2004. Percent change of serum iron concentration for individual patients and average percent changes for both cohorts are shown in FIGS. 6 and 7. On average, hepcidin administration decreased serum iron concentration over an 8 day period by 35-40% in both cohorts.

[4] = Expanded acute study (NOAEL), single subcutaneous dose of hepcidin in dogs (Example 4); type: in vivo; details: for dose at which mixed cell infiltration in the administration site was found (microscopic): males and females
Method: Increased thickness in the administration site was observed on Day 4 at 50 mg/kg and on Day 15 at ≥25 mg/kg. Microscopic findings on Day 4 consisted of mixed cell infiltration in the administration site in males and females at ≥25 mg/kg, while on Day 15, microscopic findings at the administration site included mixed cell infiltration in males and females at ≥5 mg/kg, fibrosis in males at ≥25 mg/kg and in females at ≥5 mg/kg, and cystic space in males at 50 mg/kg and in females at ≥25 mg/kg.

serum iron levels [5] = assay: Subcutaneous hepcidin 50, 100, 200 μg, effect on serum iron levels in mice (Example 2); type: in vivo; details: for serum iron levels compared to vehicle: p<0.01
Method: A study was designed to evaluate doses of 50, 100, and 200 μg of hepcidin delivered subcutaneously and their effect on serum iron levels in mice (n=7/group). […] Conversely, 50 μg and 100 μg doses were elevated (p<0.01) compared to the vehicle at 24 hours post dose. The elevated levels of serum iron could be due to the system's reaction to the clearance of hepcidin. […] Mortality was likely related to the stress of the blood collection. Serum iron levels normalized 72 hours post dose.

serum ferritin = assay: Serum ferritin in sickle cell disease and hereditary hemochromatosis patients after hepcidin (Example 5); type: in vivo, human; details: 8 days post administration
Method: Hepcidin administration lowered ferritin blood levels in sickle cell patients with high baseline ferritin. A 1 milligram bolus of hepcidin was administered subcutaneously to two male patients with sickle cell disease (patients 1001 and 1002). Serum ferritin concentrations were measured at baseline as well as eight days post administration of hepcidin. Ferritin blood levels were lower 8 days post hepcidin administration in both patients (FIG. 1). Percent changes in ferritin blood levels for patients 1001 and 1002 were −45% and −61%, respectively (FIG. 3).
Hepcidin was administered to three hereditary hemochromatosis patients with normal baseline serum ferritin concentrations. Hereditary hemochromatosis patient 1003 was administered 1 mg of hepcidin, while two other patients (2001 and 2002) were administered 5 mg of hepcidin. Ferritin blood levels were measured in all patients eight days post hepcidin administration (FIG. 2). Percent change in ferritin blood levels among patients 1003, 2001, and 2002 were 25%, −19%, and 18%, respectively (FIG. 3).

[6] = test system: transferrin saturation (TSAT); assay: Transferrin saturation (TSAT) in patients after hepcidin (Example 6); type: in vivo, human; details: for Transferrin saturation - percent change from baseline: eight days post administration
Method: Transferrin saturation (TSAT) was measured in patients described in Example 1. TSAT indicates the percent of iron-binding sites of transferrin that are occupied by iron, making TSAT an important tool in diagnosis and monitoring of blood disorders and disease. A one milligram bolus of hepcidin was administered to sickle cell disease patients 1001 and 1002 and hereditary hemochromatosis patient 1003, while patients 2001 and 2002 were administered 5 mg of hepcidin each. TSAT levels were measured eight days post hepcidin administration.

serum iron levels [7] = assay: Subcutaneous hepcidin, effect on serum iron levels in mice (Example 1); type: in vivo; details: 50 μg subcutaneous, p<0.05
Description: A study was designed to evaluate the effect of subcutaneous doses of hepcidin on serum iron levels in mice (n=6-7/group).

[8] = Sprague Dawley rats, 5, 25 and 50 mg/kg SC
[9] = patient 1001, sickle cell disease, 1 mg
[10] = patient 1002, sickle cell disease, 1 mg
[11] = patient 1003, hereditary hemochromatosis, 1 mg
[12] = patient 2001, hereditary hemochromatosis, 5 mg
[13] = patient 2002, hereditary hemochromatosis, 5 mg

Compound: CC[C@H](C)[C@@H]1NC(=O)[C@@H](NC(=O)[C@@H](NC(=O)[C@@H]2CCCN2C(=O)[C@H](Cc2ccccc2)NC(=O)[C@H](Cc2c[nH]cn2)NC(=O)[C@@H](NC(=O)[C@@H](N)CC(=O)O)[C@@H](C)O)[C@@H](C)CC)CSSC[C@@H](C(=O)N[C@@H](CCCCN)C(=O)N[C@H](C(=O)O)[C@@H](C)O)NC(=O)[C@@H]2CSSC[C@@H]3NC(=O)[C@@H]4CSSC[C@H](NC(=O)[C@H](Cc5ccccc5)NC1=O)C(=O)N[C@@H](CSSC[C@H](NC(=O)[C@H](CCCCN)NC(=O)[C@H](CO)NC(=O)[C@H](CCCNC(=N)N)NC(=O)[C@H](Cc1c[nH]cn1)NC3=O)C(=O)NCC(=O)N[C@@H](CCSC)C(=O)N2)C(=O)NCC(=O)N4 [hepcidin]
- time post dose at which serum iron levels returned to pre-dose levels (serum iron levels [1]; 5 mg subcutaneous): 48 h
- return of serum iron levels to pre-dose levels (serum iron levels [1]; 10 mg and 50 mg subcutaneous, 72 hours post dose): did not return to pre-dose levels
- effect on serum iron levels at 72 hours (serum iron levels [1]; 50 mg subcutaneous): still demonstrated an effect
- serum iron levels (serum iron levels [1]; subcutaneous, all dose levels (1, 5, 10, 50 mg)): significant decrease
- time post dose of lowest serum iron concentrations (serum iron levels [1]; subcutaneous, all three doses): 4 h
- lethargy (serum iron levels [1]; subcutaneous, any dose level): No lethargy was observed
- adverse effects [2, 8]: No unexpected adverse effects were observed
- food consumption and body weight gain [2, 8]: non-adverse, dose-independent, reductions
- injection site finding [2, 8]: induration
- reticulocytes and iron concentration [2, 8]: dose-dependent reversible decreases
- unsaturated iron binding capacity [2, 8]: increased
- average serum iron levels compared to vehicle and pre-dose levels ([2]; Sprague Dawley rats, 5, 25 and 50 mg/kg SC, all doses): significantly decreased
- time post dose of lowest serum iron level ([2]; Sprague Dawley rats, 5, 25 and 50 mg/kg SC, all three doses): 4 h
- NOAEL ([2]; both, Sprague Dawley, rat, in vivo, sc): 50 mg/kg/day
- dose that may cause adverse effects in humans [3]: about 200 mg
- average decrease of serum iron concentration over an 8 day period (serum iron concentration; both cohorts (cohort 1: 1 mg; cohort 2: 5 mg)): 35-40%
- efficacy in human subjects (serum iron concentration; doses of 1 mg and 5 mg hepcidin): display efficacy
- Serum iron concentration, maximum observed percentage change from baseline (serum iron concentration; [9]): −6%
- Serum iron concentration, percentage change from baseline 8 days after administration of hepcidin (serum iron concentration; [9]): −4%
- Serum iron concentration, maximum observed percentage change from baseline (serum iron concentration; [10]): −69%
- Serum iron concentration, percentage change from baseline 8 days after administration of hepcidin (serum iron concentration; [10]): −69%
- Serum iron concentration, maximum observed percentage change from baseline (serum iron concentration; [11]): −37%
- Serum iron concentration, percentage change from baseline 8 days after administration of hepcidin (serum iron concentration; [11]): −37%
- Serum iron concentration, maximum observed percentage change from baseline (serum iron concentration; [12]): −53%
- Serum iron concentration, percentage change from baseline 8 days after administration of hepcidin (serum iron concentration; [12]): −40%
- Serum iron concentration, maximum observed percentage change from baseline (serum iron concentration; [13]): −24%
- Serum iron concentration, percentage change from baseline 8 days after administration of hepcidin (serum iron concentration; [13]): −24%
- Serum iron concentration, maximum observed percentage change from baseline (serum iron concentration; patient 2004, hereditary hemochromatosis, 5 mg): −35%
- NOAEL at 15 Day ([4]; both sexes, dog, in vivo, sc, dogs, single subcutaneous dose): 5 mg/kg/day
- other adverse reactions ([4]; dogs, 5, 25 and 50 mg/kg single subcutaneous dose): hunched posture, soft feces, gross pathology finding of “thick,” and subcutaneous fibrosis, mixed cell infiltration, and cysts present at recovery period
- dose at which increased thickness in the administration site was observed ([4]; dogs, Day 4): 50 mg/kg
- dose at which increased thickness in the administration site was observed ([4]; dogs, Day 15): ≥ 25 mg/kg
- dose at which cystic space at the administration site was found (microscopic) ([4]; dogs, females, Day 15): ≥ 25 mg/kg
- dose at which fibrosis at the administration site was found (microscopic) ([4]; dogs, females, Day 15): ≥ 5 mg/kg
- dose at which mixed cell infiltration in the administration site was found (microscopic) ([4]; dogs, Day 4): ≥ 25 mg/kg
- dose at which mixed cell infiltration in the administration site was found (microscopic) ([4]; dogs, Day 15): ≥ 5 mg/kg
- dose at which cystic space at the administration site was found (microscopic) ([4]; dogs, males, Day 15): 50 mg/kg
- dose at which fibrosis at the administration site was found (microscopic) ([4]; dogs, males, Day 15): ≥ 25 mg/kg
- neutrophils and fibrinogen levels ([4]; dogs, up to Day 4, ≥25 mg/kg/day dose groups, not considered serious): temporary increases
- serum iron levels compared to vehicle (serum iron levels [5]; mice, 50 μg and 100 μg subcutaneous, 24 hours post dose): elevated
- serum iron levels compared to vehicle (serum iron levels [5]; mice, 50, 100 and 200 μg subcutaneous, 4 hours post dose): significant decrease
- time post dose at which serum iron levels normalized (serum iron levels [5]; mice, subcutaneous): 72 h
- mortality (serum iron levels [5]; mice, following the 4-hour blood collection, likely related to stress of blood collection): One mouse died
- percent change in ferritin blood levels (serum ferritin; patient 1001, sickle cell disease, 1 mg subcutaneous bolus): −45%
- percent change in ferritin blood levels (serum ferritin; patient 1002, sickle cell disease, 1 mg subcutaneous bolus): −61%
- percent change in ferritin blood levels (serum ferritin; patient 1003, hereditary hemochromatosis, normal baseline ferritin, 1 mg): 25%
- percent change in ferritin blood levels (serum ferritin; patient 2001, hereditary hemochromatosis, normal baseline ferritin, 5 mg): −19%
- percent change in ferritin blood levels (serum ferritin; patient 2002, hereditary hemochromatosis, normal baseline ferritin, 5 mg): 18%
- ferritin blood levels versus baseline (serum ferritin; sickle cell disease patients 1001 and 1002 (high baseline ferritin), 1 mg subcutaneous bolus): lower
- TSAT at day eight versus baseline ([6]; all patients (1001, 1002, 1003 at 1 mg; 2001, 2002 at 5 mg)): percent decrease
- Transferrin saturation - percent change from baseline [6, 9]: −19%
- Transferrin saturation - percent change from baseline [6, 10]: −62%
- Transferrin saturation - percent change from baseline [6, 11]: −27%
- Transferrin saturation - percent change from baseline [6, 12]: −26%
- Transferrin saturation - percent change from baseline [6, 13]: −40%
- decrease in serum iron levels compared to vehicle (average) (serum iron levels [7]; 4 hours post dose): 40%
- decrease in serum iron levels compared to vehicle (average) (serum iron levels [7]; 24 hours post dose): 15%
